According to ChEMBL document CHEMBL1151000, “Novel synthetic rotenoids with blocked B/C ring systems” (Bioorg Med Chem Lett, 1992):

Tests used:
[1] = The compound was evaluated for the insecticidal activity against housefly without cytochrome P450 oxidase inhibitor piperonyl butoxide; conditions: musca domestica
[2] = The compound was evaluated for the inhibition of NADH dehydrogenase
[3] = The compound was evaluated for the insecticidal activity against housefly with cytochrome P450 oxidase inhibitor piperonyl butoxide; assay type: ADME; conditions: musca domestica

SMILES	LD50 [1] [ug fly-1]	IC50 [2] [nM]	LD50 [3] [ug fly-1]
C=C(C)[C@H]1Cc2c(ccc3c2O[C@@H]2COc4cc(OC)c(OC)cc4[C@@H]2C3=O)O1 [ROTENONE]	10	3.5	5
C=C(C)[C@H]1Cc2c(ccc3c2O[C@@H]2COc4cc(OC)c(OC)cc4[C@@]2(C)C3=O)O1.C=C(C)[C@H]1Cc2c(ccc3c2O[C@H]2COc4cc(OC)c(OC)cc4[C@]2(C)C3=O)O1	> 10	360	4
C=C(C)[C@H]1Cc2c(ccc3c2O[C@@H]2COc4cc(OC)c(OC)cc4[C@]2(C)C3=O)O1	2	17	0.2
COc1cc2c(cc1OC)[C@]1(C)C(=O)c3ccc4c(c3O[C@@H]1CO2)C[C@H](C(C)C)O4		16	
C=C(C)[C@H]1Cc2c(ccc3c2OC24COc5cc(OC)c(OC)cc5C2(C4)C3=O)O1 (some centres not stated)		80	10
